From patent US6946447B2, “MDM2-specific antisense oligonucleotides” (Hybridon, Inc., priority 1997, dated 2005)

Columns and labels:
JAR xenografts = assay: Tumor regression and survival of nude mice bearing large JAR xenografts, intratumoral injection; settings: JAR xenografts (average 2,000 mg)
Procedure: Administration was by direct injection into the tupors at the designated daily dose, 5 doses/week. Anti-MDM2 oligonucleotide: AS5-2H (5 mg/kg/day, 5 injections); anti-MDM2 oligonucleotide (5 mg/kg)+HCPT (3 mg/kg); control (saline); HCPT: 3 mg/kg/day.
The tumor cell lines, SJSA and JAR, were cultured under the same conditions as in in vitro studies (Chen et al., PNAS 1998, supra). Human cancer xenograft models were established using the methods reported previously (Cai et al., Intl. J. Oncol. 10:953-960, 1997; and Zhang et al., Intl. J. Oncol. 10:1147-1156, 1997). Female nude mice (five week old) were used in the study. Cultured SJSA and JAR cells were harvested from the monolayer cultures, washed twice with DMEMF-12 HAM medium, resuspended in DMEM, and injected s.c. (20×10^6 cells, total volume 0.2 ml) into the left inguinal area of the mice. The animals were monitored by general clinical observation, body weight, and tumor growth. […] Animals with JAR cells were treated when the tumor size reached 2,000 mg. The animals bearing human cancer carcinoma xenografts were randomly divided into treatment groups and a control group (6-10 mice/group). Oligonucleotides dissolved in physiological saline (0.9% NaCl) were administered by ip injection at various daily doses, 5 consecutive days per week. The control group received physiological saline only. […]

[1] = system: MDM2, p53 and p21 protein levels in LS174T cells; assay: Western blot of MDM2, p53 and p21 in LS174T cells; assay type: cell-based, human; settings: 24 hr, Lipofectin
[2] = system: human colon cancer LS174T xenografts; assay: Tumor growth in nude mice bearing LS174T xenografts

Question: For “Oligo AS: 20-mer mixed-backbone phosphorothioate oligonucleotide with 2′-O-methyl ends, 5′UGACACCTGTTCTCACUCAC-3′; SEQ ID NO:47 (mixed phosphorothioate backbone with 2'-O-methyl ends, pattern not given here)”, which tumor regression (JAR xenografts; direct injection) is on record?
Answer: tumor regression

Question: And the “animals surviving up to 4 weeks” value (JAR xenografts; direct injection into tumors, 5 mg/kg/day)?
Answer: 20%

Question: What about the “inhibition of MDM2 expression” value ([1]; 500 nM) of the same substance?
Answer: greater than 90%

Question: What about the “effect on MDM2, p53 and p21 protein levels” value ([1]; up to 500 nM) of the same substance?
Answer: p53 and p21 levels elevated accordingly

Question: And the “xenograft pathology (tumor histology)” value [2]?
Answer: patches of collagenous connective tissues replacing tumor and necropurulent, ulcerative changes

Question: And the “effect on in vivo tumor growth” value ([2]; daily ip dose 20 mg/kg)?
Answer: significant inhibitory effect

Question: What about the “Ratio (%) of % T:C with oligo to % T:C without oligo ([2]/[1] or [3]/[1])” value ([2]; day 3) of the same substance?
Answer: 51%

Question: What about the “Growth ratio % T:C (mean tumor mass of treated group vs saline control)” value (from here on “Growth ratio % T:C”) ([2]; day 3, oligo 20, HCPT 3, 5-FU 10 mg/kg/day) of the same substance?
Answer: 50.9%

Question: And the “Ratio (%) of % T:C with oligo to % T:C without oligo ([2]/[1] or [3]/[1])” value ([2]; day 6)?
Answer: 44%

Question: What about the “Growth ratio % T:C” value ([2]; day 6, oligo 20, HCPT 3, 5-FU 10 mg/kg/day) of the same substance?
Answer: 44.1%

Question: What about the “Ratio (%) of % T:C with oligo to % T:C without oligo ([2]/[1] or [3]/[1])” value ([2]; day 9) of the same substance?
Answer: 30%

Question: And the “Growth ratio % T:C” value ([2]; day 9, oligo 20, HCPT 3, 5-FU 10 mg/kg/day)?
Answer: 29.9%

Question: What about the “Ratio (%) of % T:C with oligo to % T:C without oligo ([2]/[1] or [3]/[1])” value ([2]; day 12) of the same substance?
Answer: 34%

Question: What about the “Growth ratio % T:C” value ([2]; day 12, oligo 20, HCPT 3, 5-FU 10 mg/kg/day) of the same substance?
Answer: 34.3%

Question: And the “Ratio (%) of % T:C with oligo to % T:C without oligo ([2]/[1] or [3]/[1])” value ([2]; day 15)?
Answer: 45%

Question: What about the “Growth ratio % T:C” value ([2]; day 15, oligo 20, HCPT 3, 5-FU 10 mg/kg/day) of the same substance?
Answer: 45.2%

Question: What about the “Ratio (%) of % T:C with oligo to % T:C without oligo ([2]/[1] or [3]/[1])” value ([2]; day 18) of the same substance?
Answer: 37%

Question: What about the “Growth ratio % T:C” value ([2]; day 18 (end of experiment), oligo 20, HCPT 3, 5-FU 10 mg/kg/day) of the same substance?
Answer: 37.3%
